pIC50: −log10 of the molar value.
Legend:
[1] = tested on: MDA-MB-231; assay: Cell viability assay (MTS), antiproliferative activity; format: cell-based; settings: Homo sapiens, 72 h
Method: (§1) To preliminarily profile the bioactivity of these compounds, we adopted a streamlined approach which involved screening against KDM6A at two concentrations and evaluating antiproliferative activity against three representative cell lines – MCF-7 (ER(+) BCa), MDA-MB-231 (TNBC BCa) and Vero (a non-transformed cell line as control).
(§2) The In vitro proliferation assay was performed as reported previously[15],[16]. Detailed description of the protocol used is included in the Supplementary Information.
(§3) Cell Viability Assay. All cell lines were purchased form ATCC (Manassas, VA), and they were routinely cultured in different media recommended by the supplier. MCF-7 cells were cultured in non-phenol red DMEM (Corning, Manassas, VA) fortified with 10% charcoal treated fetal bovine serum (FBS; Atlanta Biologicals, GA) and 0.2 mM glutamine (Corning, Manassas, VA), whereas MDA-MB-231, DU-145, and Vero were cultured in DMEM with 10% FBS. […] After 24 h incubation in 37 °C under 5% CO2, cells were treated with serially diluted ligands with final DMSO concentration of 1% and incubated for additional 72 h. MTS (CellTiter 96 Aqueous One Solution Cell Proliferation Assays, Promega, Madison, WI) was added to each well 2.5 h prior to recording the absorbance at 490 nm.

[2] = tested on: VERO; assay: as above; format: cell-based; settings: Chlorocebus sabaeus, 72 h
Method: as §1, §2, §3

[3] = tested on: MCF-7; assay: as above; format: cell-based; settings: Homo sapiens, MCF7, 72 h
Method: as §1, §2, §3

[4] = biological target: T1, KDM6A (UTX) (Homo sapiens, UniProt O15550); assay: KDM cell-free assay (AlphaScreen, BPS Bioscience); format: biochemical; settings: for pIC50: Fig. 9A, read-out: IC50 (KDM6A inhibition dose response curve)
T1 construct: purchased BPS Bioscience

[5] = tested on: HP1-mediated heterochromatin gene repression in CiA:Oct4 embryonic stem cells; assay: HP1-recruitment assay dose curve (CiA:Oct4, with CIP-rapamycin), flow cytometry; format: cell-based, mouse; settings: 48 h with CIP-rapamycin recruitment of HP1; up to 10 µM
From the text: To elucidate the effect of DFP-based KDM inhibitors on chromatin dynamics, we profiled them in an intracellular assay which measures heterochromatin formation speed. The chromatin in vivo assay (CiA) leverages chemical induced proximity (CIP) to recruit heterochromatin protein 1 (HP1) to a modified Oct4 locus. This reporter system is composed of tandem arrays of Gal4 and zinc finger DNA binding domains in the promoter of one allele of Oct4, where the gene was replaced by a nuclear eGFP reporter. Protein fusions of Gal4-FKBP and FRB-HP1 allow for direct chemical recruitment of HP1 to the CiA:Oct4 reporter locus upon addition of the chemical inducer of proximity (CIP)-rapamycin. After CIP-rapamycin addition, HP1 is recruited to the reporter locus and brings histone methyltransferase enzymes to the chromatin reporter resulting in the repressive H3K9me3 mark being deposited (Fig. 10A). H3K9me3 deposition is the signature mark of heterochromatin and is coupled with gene silencing and loss of GFP expression (Fig. 10B)[33]. Others have shown that H3K4me3 marked nucleosomes impede H3K9 methyltransferase activity. Thus, we postulate that the active H3K4me3 mark must be removed by KDM enzymes as part of the transformation from euchromatin to heterochromatin. Inhibition of KDMs, specifically those targeting H3K4me3, would result in a decrease in H3K9me3 accumulation, which would be measured in our assay as an increase in GFP positive cells.
To determine the effect of DFP-based KDM inhibitors on HP1-mediated gene repression, we treated CiA:Oct4 embryonic stem (ES) cells with doses of representative compounds ranging from 10 µM–250 nM for 48 h with CIP-rapamycin recruitment of HP1 (Fig. 10C). […] The percentage of GFP(+) cells was determined by flow cytometry as indicated in representative histograms (Supplemental Fig. S8).
Day 0, CiA:Oct4 N118/163 cells were grown in ES media and seeded at a density of 10,000 cells per well in 100 μL media (100,000 cells mL^−1) on gelatin coated 96 well plates. Day 1, culture media was aspirated and replaced with 100 µL ES media containing +/− 6 nM rapamycin. 10 µM, 5 µM, 2.5 µM, 1 µM, 500 nM, and 250 nM concentrations of compound or DMSO were added using a TTP Labtech Mosquito HTS liquid handler. Days 2, fresh ES media +/− rapamycin and compound were added as in Day 1. Day 3, cells were washed with PBS and trypsinized using 0.25% trypsin-EDTA. Trypsin was quenched with serum. Cells were resuspended by pipetting in preparation for flow cytometry analysis.
Flow cytometry data was acquired using the Intellicyt iQue Screener and analyzed with FlowJo software.
The CiA:Oct4 recruitment system in mouse embryonic stem cells contains Gal4 and Zinc finger DNA binding arrays and a downstream nuclear eGFP gene in place of a single Oct4 allele as previously described.^30 The CiA:Oct4 N118/N163 cell line containing viral integrations of N118 and N163 plasmids (N118- nLV EF-1α-Gal-FKBPx1-HA-PGK-Blast, N163- nLV EF-1α-HP1α (CS)-Frbx2(Frb+FrbWobb)-V5-PGK-Puro) was used for inhibition of HP1-mediated heterochromatin studies. All plasmids are freely available on addgene.
HP1-Recruitment Assay Dose Curve. Day 0, CiA:Oct4 N118/163 cells were grown in ES media and seeded at a density of 10,000 cells per well in 100 µL media (100,000 cells mL^-1) on gelatin coated 96 well plates. Day 1, culture media was aspirated and replaced with 100 µL ES media containing +/- 6 nM rapamycin. 10 µM, 5 µM, 2.5 µM, 1 µM, 500 nM, and 250 nM concentrations of compound or DMSO were added using a TTP Labtech Mosquito HTS liquid handler. Days 2, fresh ES media +/- rapamycin and compound were added as in Day 1. Day 3, cells were washed with PBS and trypsinized using 0.25% trypsin-EDTA. Trypsin was quenched with serum. Cells were resuspended by pipetting in preparation for flow cytometry analysis.
Flow Cytometry and Analysis.

[6] = Table 5, values calculated by linear regression

T1 sequence (O15550 whole entry): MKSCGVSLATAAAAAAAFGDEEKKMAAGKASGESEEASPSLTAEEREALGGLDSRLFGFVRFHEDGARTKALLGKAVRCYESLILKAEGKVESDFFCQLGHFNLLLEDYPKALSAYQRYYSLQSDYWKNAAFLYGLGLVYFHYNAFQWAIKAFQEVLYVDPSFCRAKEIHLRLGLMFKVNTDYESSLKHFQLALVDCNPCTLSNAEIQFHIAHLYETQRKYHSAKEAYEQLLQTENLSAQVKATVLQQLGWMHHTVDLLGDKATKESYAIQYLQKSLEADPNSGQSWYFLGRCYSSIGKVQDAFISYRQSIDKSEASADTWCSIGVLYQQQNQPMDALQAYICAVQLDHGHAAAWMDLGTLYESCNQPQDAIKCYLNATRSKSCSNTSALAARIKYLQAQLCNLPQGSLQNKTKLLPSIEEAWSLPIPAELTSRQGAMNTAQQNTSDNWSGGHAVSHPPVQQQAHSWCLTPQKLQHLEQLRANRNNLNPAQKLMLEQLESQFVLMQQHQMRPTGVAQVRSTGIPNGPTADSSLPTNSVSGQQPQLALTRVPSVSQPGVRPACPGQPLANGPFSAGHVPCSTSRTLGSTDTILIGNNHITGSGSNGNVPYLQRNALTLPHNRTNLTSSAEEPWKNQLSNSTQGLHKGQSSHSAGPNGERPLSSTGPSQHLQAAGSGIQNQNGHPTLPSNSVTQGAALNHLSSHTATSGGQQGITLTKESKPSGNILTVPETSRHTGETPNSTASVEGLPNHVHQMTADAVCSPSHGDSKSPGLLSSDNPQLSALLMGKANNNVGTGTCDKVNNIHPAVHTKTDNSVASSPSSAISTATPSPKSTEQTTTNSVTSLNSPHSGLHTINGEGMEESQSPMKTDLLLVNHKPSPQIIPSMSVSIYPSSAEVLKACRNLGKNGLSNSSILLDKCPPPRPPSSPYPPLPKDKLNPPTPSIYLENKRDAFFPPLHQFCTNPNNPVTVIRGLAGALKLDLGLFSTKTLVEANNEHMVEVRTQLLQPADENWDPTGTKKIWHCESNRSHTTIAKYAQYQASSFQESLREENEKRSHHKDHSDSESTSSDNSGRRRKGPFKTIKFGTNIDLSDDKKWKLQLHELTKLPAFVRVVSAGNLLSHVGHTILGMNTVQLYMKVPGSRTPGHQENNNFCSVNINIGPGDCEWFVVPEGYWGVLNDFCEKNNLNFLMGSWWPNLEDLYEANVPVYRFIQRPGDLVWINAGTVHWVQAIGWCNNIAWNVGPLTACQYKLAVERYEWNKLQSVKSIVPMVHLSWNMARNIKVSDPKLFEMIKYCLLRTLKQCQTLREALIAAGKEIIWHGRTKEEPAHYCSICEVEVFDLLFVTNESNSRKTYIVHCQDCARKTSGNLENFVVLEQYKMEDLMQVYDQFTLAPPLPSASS

| Compound | pIC50 ([1]; Table 5) | pIC50 ([2]; Table 5) | pIC50 ([3]; Table 5) | inhibition at 1 µM ([4]; Table 2) [%] | inhibition at 10 µM ([4]; Table 2) [%] | also measured |
| --- | --- | --- | --- | --- | --- | --- |
| Cc1cccc(-c2cn(CCCCCn3ccc(=O)c(O)c3C)nn2)c1 [2d] | 4.93 | 5.44 | < 4.30 | – | – | – |
| Cc1c(O)c(=O)ccn1CCCCn1cc(-c2ccc(N(C)C)cc2)nn1 [2q] | 5.02 | < 4.30 | < 4.30 | – | – | – |
| Cc1c(O)c(=O)ccn1CCCCn1ccc(=O)c(O)c1C [3a] | – | – | – | – | – | inhibition at 1 µM ([4]; Table 3): 4%; inhibition at 10 µM ([4]; Table 3): 100%; pIC50 ([1]; Table 6): < 4.30; pIC50 ([2]; Table 6): < 4.30; pIC50 ([3]; Table 6): < 4.30 |
| Cc1c(O)c(=O)ccn1[C@H]1CC[C@H](n2ccc(=O)c(O)c2C)CC1 [3e] | – | – | – | – | – | inhibition at 1 µM ([4]; Table 3): 5%; inhibition at 10 µM ([4]; Table 3): 100%; pIC50 ([1]; Table 6): 4.43; pIC50 ([2]; Table 6): < 4.30; pIC50 ([3]; Table 6): < 4.30 |
| Cc1c(O)c(=O)ccn1CCCCCn1ccc(=O)c(O)c1C [3b] | – | – | – | – | – | inhibition at 1 µM ([4]; Table 3): 1%; inhibition at 10 µM ([4]; Table 3): 99%; pIC50 ([1]; Table 6): < 4.30; pIC50 ([2]; Table 6): < 4.30; pIC50 ([3]; Table 6): < 4.30 |
| COc1cccc(-c2cn(CCCCn3ccc(=O)c(O)c3C)nn2)c1 [2i] | 5.12 | < 4.30 | – | 7 | 100 | pIC50 [3, 6]: 4.26 |
| Cc1c(O)c(=O)ccn1CCn1cc(-c2ccccc2)nn1 [1a] | – | – | – | 12 | 96 | pIC50 ([1]; Table 4): < 4.30; pIC50 ([2]; Table 4): < 4.00; pIC50 ([3]; Table 4): < 4.30; inhibition of heterochromatin formation [5]: did not inhibit heterochromatin formation |
| Cc1c(O)c(=O)ccn1CCCCCn1cc(-c2ccccn2)nn1 [2s] | < 4.30 | < 4.30 | < 4.30 | 15 | 99 | – |
| Cc1ccccc1-c1cn(CCCCCn2ccc(=O)c(O)c2C)nn1 [2b] | 4.90 | 5.24 | < 4.30 | – | – | – |
| Cc1c(O)c(=O)ccn1CCCCCCn1cc(-c2ccc(-c3ccncc3)cc2)nn1 [2u] | 5.77 | 4.17 | < 4.30 | 15 | 99 | pIC50 [4]: 5.29 |
| COc1ccc(-c2cn(CCCCn3ccc(=O)c(O)c3C)nn2)cc1 [2k] | 5.09 | < 4.30 | < 4.30 | – | – | – |
| Cc1c(O)c(=O)ccn1CCCCCCn1ccc(=O)c(O)c1C [3c] | – | – | – | – | – | inhibition at 1 µM ([4]; Table 3): 2%; inhibition at 10 µM ([4]; Table 3): 100%; pIC50 ([1]; Table 6): < 4.30; pIC50 ([2]; Table 6): < 4.30; pIC50 ([3]; Table 6): < 4.30 |
| COc1ccccc1-c1cn(CCCCn2ccc(=O)c(O)c2C)nn1 [2g] | 5.02 | < 4.30 | – | – | – | pIC50 [3, 6]: 4.18 |
| COc1ccc(-c2cn(CCCCCn3ccc(=O)c(O)c3C)nn2)cc1 [2l] | 5.02 | < 4.30 | < 4.30 | 4 | 100 | – |
| COc1ccccc1-c1cn(CCCCCn2ccc(=O)c(O)c2C)nn1 [2h] | 4.72 | < 4.30 | < 4.30 | 3 | 99 | – |
| Cc1c(O)c(=O)ccn1CCCCCn1cc(-c2ccccc2)nn1 [1d] | – | – | – | 12 | 100 | pIC50 [4]: 5.48; pIC50 ([1]; Table 4): 4.94; pIC50 ([2]; Table 4): < 4.30; pIC50 ([3]; Table 4): < 4.30 |
| Cc1c(O)c(=O)ccn1CCCCCn1cc(-c2cccc(F)c2)nn1 [2n] | 5.17 | 4.64 | < 4.30 | 5 | 100 | – |
| Cc1c(O)c(=O)ccn1Cc1ccc(Cn2ccc(=O)c(O)c2C)cc1 [3f] | – | – | – | – | – | inhibition at 1 µM ([4]; Table 3): 5%; inhibition at 10 µM ([4]; Table 3): 100%; pIC50 ([1]; Table 6): 4.60; pIC50 ([2]; Table 6): < 4.30; pIC50 ([3]; Table 6, values calculated by linear regression): 3.42 |
| Cc1c(O)c(=O)ccn1CCCCCn1cc(-c2ccccc2C(F)(F)F)nn1 [2p] | 4.73 | 4.88 | < 4.30 | 15 | 99 | – |
| Cc1cccc(-c2cn(CCCCn3ccc(=O)c(O)c3C)nn2)c1 [2c] | 4.96 | 5.28 | – | 4 | 100 | pIC50 [3, 6]: 4.20 |
| Cc1c(O)c(=O)ccn1CCCCCCCn1ccc(=O)c(O)c1C [3d] | – | – | – | – | – | inhibition at 1 µM ([4]; Table 3): 3%; inhibition at 10 µM ([4]; Table 3): 100%; pIC50 ([1]; Table 6): < 4.30; pIC50 ([2]; Table 6): < 4.30; pIC50 ([3]; Table 6): < 4.30 |
| Cc1c(O)c(=O)ccn1CCCCCn1cc(-c2ccccc2F)nn1 [2m] | 4.74 | 4.90 | < 4.30 | 16 | 100 | – |
| Cc1c(O)c(=O)ccn1CCCCCn1cc(-c2ccc(N(C)C)cc2)nn1 [2r] | 4.90 | < 4.30 | < 4.30 | – | – | – |
| Cc1ccc(-c2cn(CCCCn3ccc(=O)c(O)c3C)nn2)cc1 [2e] | 5.13 | 5.39 | < 4.30 | 13 | 100 | – |
| Cc1ccccc1-c1cn(CCCCn2ccc(=O)c(O)c2C)nn1 [2a] | 4.79 | 4.94 | – | 6 | 100 | pIC50 [3, 6]: 4.37 |
| Cc1c(O)c(=O)ccn1CCCCCCn1cc(-c2ccccc2)nn1 [1e] | – | – | – | 12 | 98 | pIC50 ([1]; Table 4): 4.90; pIC50 ([2]; Table 4): < 4.46; pIC50 ([3]; Table 4): < 4.30 |
| Cc1c(O)c(=O)ccn1CCCCCn1cc(-c2ccc(F)cc2)nn1 [2o] | 5.44 | 4.41 | < 4.30 | 10 | 100 | – |
